Data taken from patent US20130177528A1, “COMPOSITIONS AND METHODS FOR INHIBITING VIRAL INFECTION” (WESTERN UNIVERSITY OF HEALTH SCIENCES, priority 2011, published 2013).

B1: ADAM15: ADAM15 (Ad15) polypeptide tested against HSV-1; exact construct not stated (protein, UniProt Q13444 207-863, looked up)
Disintegrin and …: DVVTETKTVELVIVADHSEAQKYRDFQHLLNRTLEVALLLDTFFRPLNVRVALVGLEAWTQRDLVEISPNPAVTLENFLHWRRAHLLPRLPHDSAQLVTGTSFSGPTVGMAIQNSICSPDFSGGVNMDHSTSILGVASSIAHELGHSLGLDHDLPGNSCPCPGPAPAKTCIMEASTDFLPGLNFSNCSRRALEKALLDGMGSCLFERLPSLPPMAAFCGNMFVEPGEQCDCGFLDDCVDPCCDSLTCQLRPGAQCASDGPCCQNCQLRPSGWQCRPTRGDCDLPEFCPGDSSQCPPDVSLGDGEPCAGGQAVCMHGRCASYAQQCQSLWGPGAQPAAPLCLQTANTRGNAFGSCGRNPSGSYVSCTPRDAICGQLQCQTGRTQPLLGSIRDLLWETIDVNGTELNCSWVHLDLGSDVAQPLLTLPGTACGPGLVCIDHRCQRVDLLGAQECRSKCHGHGVCDSNRHCYCEEGWAPPDCTTQLKATSSLTTGLLLSLLVLLVLVMLGASYWYRARLHQRLCQLKGPTCQYRAAQSGPSERPGPPQRALLARGTKQASALSFPAPPSRPLPPDPVSKRLQAELADRPNPPTRPLPADPVVRSPKSQGPAKPPPPRKPLPADPQGRCPSGDLPGPGAGIPPLVVPSRPAPPPPTVSSLYL

Columns and labels:
[1] = system: HSV-1 (KOS) gL86; assay: HSV-1 infection of HeLa, Vero and 293T cells, virus pre-incubated (Example 3); type: cell-based, herpes simplex virus type-1; conditions: HeLa cells; virus 30 pfu/cell pre-incubated 90 min; 6 hr
Method: CN blocks herpes simplex virus type-1 (HSV-1) infection of natural target cells. HeLa, Vero and 293T cells were each grown to 100% confluency in 96-well plates. The β-galactosidase-expressing recombinant virus HSV-1 (KOS) HSV-1 gL86 (30 pfu/cell) was pre-incubated with CN at the concentration indicated in FIG. 7 or mock treated with 1 X phosphate saline buffer for 90 min at room temperature. After 6 hr, the cells were washed, permeabilized and incubated with ONPG substrate (3.0 mg/ml). The β-gal enzymatic activity was measured at an optical density of 410 nm (OD 410). Each value shown in FIG. 7 is the mean of three or more determinations (±SD). Mock treated HSV-1 with PBS was used as a control. HSV-1 infection of HeLa (panel A) and Vero and 293T cells (panel B) was blocked by CN.

[2] = system: HSV-2 (333 gJ-reporter virus); assay: HSV-2 infection of HeLa cells, ONPG assay (Example 4); type: cell-based; conditions: virus pre-incubated; starting concentration 1 mg/ml
Method: In this experiment different clinical strains of HSV-1 (F, G, and MP strains of HSV-1 [37] at 25 pfu/cell) were either pre-incubated with 1×PBS (control) or with CN at the concentrations indicated in FIG. 8, panel A for 90 min at room temperature. After 90 min of incubation the two pools of viruses were incubated with Nectin-1 receptor expressing CHO Igβ cells that express β-galactosidase upon viral entry as described. The viral infection blocking was measured by ONPG assay (FIG. 8, panel A). Similar experiment was conducted using Lac Z encoded HSV-2 (333 gJ-reporter virus). HSV-2 is a genital herpes virus. […] Each value shown is the mean of three or more determinations (±SD).

[3] = system: HSV-1 (KOS) gL86; assay: HSV-1 infection of HeLa cells at MOIs 5, 15 and 25 PFU/cell (Example 6); type: cell-based, herpes simplex virus type-1; conditions: virus pre-incubated 180 min, 6 hr
Method: HeLa cells were each grown to 100% confluency in 96-well plates. The β-galactosidase-expressing recombinant virus HSV-1 (KOS) HSV-1 gL86 […] was pre-incubated at MOIs of 5 (FIG. 10, panel A), 15 (FIG. 10, panel B) and 25 (FIG. 10, panel C) plaque-forming units per cell (PFU) with VCN (VN), CN or ADAM15 (Ad15) at the concentrations indicated or mock treated with 1 X phosphate saline buffer for 180 min at room temperature. After 6 hr, the cells were washed, permeabilized and incubated with ONPG substrate (3.0 mg/ml). The β-gal enzymatic activity was measured at an optical density of 410 nm (OD 410). Mock treated HSV-1 with PBS was used as a […] control ((+) infected with virus alone; (−) uninfected control).

[4] = system: β-galactosidase-expressing recombinant Adenovirus; assay: Adenovirus infection of HeLa cells (Example 7); type: cell-based; conditions: similar experiments as for CN
Method: HeLa cells were infected with a β-galactosidase-expressing recombinant Adenovirus were pre-incubated with CN at (1) the dilution indicated in FIG. 11, panel A (stock concentration 22 nM) or (2) the concentrations indicated in FIG. 11, panel B, or mock treated with 1 X phosphate saline buffer for 90 min at room temperature. After 12 hr, the cells were washed, permeabilized and incubated with ONPG substrate (3.0 mg/ml) for quantitation of β-galactosidase activity expressed from the input viral genome. Positive (Pos) infected with virus alone; Negative (Neg) uninfected control. The enzymatic activity was measured at an optical density of 410 nm (OD 410).

Molecule	HSV-1 infection (β-gal activity, OD 410) [1]	HSV-2 infection of HeLa cells (dose response, ONPG assay) [2]	HSV-1 infection of HeLa cells, blocking and rank order (β-gal activity, OD 410) [3]	IC50 [4]
vicrostatin [VCN]	blocked HSV-1 infection of HeLa cells	significantly inhibited HSV-2 infection	blocked by CN >VCN >ADAM15	21 µM
B1	–	–	blocked by CN >VCN >ADAM15	–
